Measured values reported in patent publication US20240024324A1, “KINASE INHIBITOR COMBINATIONS FOR CANCER TREATMENT” (Merck Patent GmbH, priority 2020, published 2024).

What was measured:
GSC11 [1] = assay: GSC lines: sensitivity in vitro (IC50); format: cell-based
Method: (§1) FIG. 1: In vitro analyses in GSC lines. (A) Western blot analysis of protein expression; (B) IC50 of M2698; (C) IC50 of pimasertib; and (D) apoptotic GSC11, GSC7-2, and GSC17 cells after treatment with M2698, pimasertib, or M2698+pimasertib combination. Single agents were tested at their IC50; half the IC50 of each compound was used for the combination.
(§2) All GSC lines expressed Akt. Relatively high pAkt expression in GSC17, GSC7-2, GSC231, GSC11, GSC20, GSC6-27, and GSC8-11 lines compared with GSC272 and GSC267 (FIG. 1A).

GSC17 [2] = assay: GSC lines: sensitivity in vitro (IC50); format: cell-based
Method: as §1, §2

GSC20 [3] = assay: GSC lines: sensitivity in vitro (IC50); format: cell-based
Method: as §1, §2

GSC231 [4] = assay: GSC lines: sensitivity in vitro (IC50); format: cell-based; conditions: GSC231 line in vitro
Method: as §1, §2

GSC6-27 [5] = assay: GSC lines: sensitivity in vitro (IC50); format: cell-based; conditions: GSC6-27 line in vitro
Method: as §1, §2

GSC7-2 [6] = assay: GSC lines: sensitivity in vitro (IC50); format: cell-based
Method: as §1, §2

GSC272 [7] = assay: GSC lines: sensitivity in vitro (IC50); format: cell-based; conditions: GSC272 line in vitro
Method: FIG. 1: In vitro analyses in GSC lines. (A) Western blot analysis of protein expression; (B) IC50 of […]; (C) IC50 of pimasertib; and (D) apoptotic GSC11, GSC7-2, and GSC17 cells after treatment with […], pimasertib, or […]+pimasertib combination. Single agents were tested at their IC50; half the IC50 of each compound was used for the combination. In vitro IC50 data were used to select GSC lines for in vivo studies; […] All GSC lines expressed Akt. Relatively high pAkt expression in GSC17, GSC7-2, GSC231, GSC11, GSC20, GSC6-27, and GSC8-11 lines compared with GSC272 and GSC267 (FIG. 1A). […] (FIG. 1B).

GSC11 [8] = assay: Induction of apoptosis in GSC lines in vitro; format: cell-based
Method: (§3) FIG. 1: In vitro analyses in GSC lines. (A) Western blot analysis of protein expression; (B) IC50 of M2698; (C) IC50 of pimasertib; and (D) apoptotic GSC11, GSC7-2, and GSC17 cells after treatment with M2698, pimasertib, or M2698+pimasertib combination. […]
(§4) Induction of apoptosis by M2698, pimasertib, and the combination was measured in three of five GSC lines that were sensitive to M2698 in vitro.

GSC17 [9] = assay: Induction of apoptosis in GSC lines in vitro; format: cell-based
Method: as §3, §4

GSC7-2 [10] = assay: Induction of apoptosis in GSC lines in vitro; format: cell-based
Method: as §3, §4

GSC11 [11] = assay: Orthotopic GSC xenograft model; format: in vivo, mice
Method: (§5) The in vivo effects of M2698 and pimasertib, alone and in combination, were assessed in the GSC models after orthotopic implantation into mice. Treatment duration and time of euthanasia post-implantation was 5-10 weeks. Endpoints were expression of PD markers pS6 and pERK, proliferation marker Ki67, apoptosis as measured by TUNEL, tumor volume and survival.

GSC17 [12] = assay: Orthotopic GSC xenograft model; format: in vivo, mice
Method: as §5

GSC20 [13] = assay: Orthotopic GSC xenograft model; format: in vivo, mice
Method: as §5

GSC231 [14] = assay: Orthotopic GSC xenograft model; format: in vivo, mice
Method: as §5

GSC272 [15] = assay: Orthotopic GSC xenograft model; format: in vivo, mice
Method: as §5

GSC6-27 [16] = assay: Orthotopic GSC xenograft model; format: in vivo, mice
Method: as §5

GSC7-2 [17] = assay: Orthotopic GSC xenograft model; format: in vivo, mice
Method: as §5

[18] = tested on: Non-Small Lung Cancer (NSCLC) Brain Metastases PDX; assay: PDX models of NSCLC brain metastases; format: in vivo
[19] = tested on: Her2+/HR− Breast Cancer PDX; assay: PDX models of Her2+/HR- breast cancer; format: in vivo
[20] = tested on: human cholangiocarcinoma cancer PDX; assay: PDX models of cholangiocarcinoma; format: in vivo, mice; conditions: 20 mg/kg each agent QD PO
Description: The objective of this experiment was to evaluate the antitumor activity of M2698 alone and in combination with Pimasertib in a panel of 13 Patient-Derived Xenograft models representing human cholangiocarcinoma cancer derived from Chinese patients in immune-deficient mice.
Vehicle: 0.5% Methocel/0.25% Tween20 in Milli-Q Water. Tumors from three untreated mice were collected as satellite samples when reached a tumor volume between 300-500 mm3.

Colorectal Cancer PDX = assay: 75 PDX models of colorectal cancer; format: in vivo; conditions: CRC PDX; M2698 25 mg/kg po qd, Pimasertib 20 mg/kg po qd, Cetuximab 20 mg/kg ip q2w
Description: Of the 75 models, 25 were wild type, 25 KRas mutant, and 25 BRaf mutant.

[21] = in vivo; cited from earlier work

O=C(NCC(O)CO)c1ccncc1Nc1ccc(I)cc1F (stereo not drawn) [pimasertib, N-(2,3-dihydroxy-propyl)-3-(2-fluoro-4-iodo-phenylamino)-isonicotinamide, reference compound]
sensitivity in vitro (GSC11 [1]; GSC11 line): most sensitive
IC50 (GSC11 [1]; GSC11 line in vitro): < 2000 nM
sensitivity in vitro (GSC17 [2]; GSC17 line): moderately sensitive
IC50 (GSC17 [2]; GSC17 line in vitro): < 2000 nM
sensitivity in vitro (GSC20 [3]; GSC20 line): insensitivity
IC50 (GSC20 [3]; GSC20 line in vitro): > 2000 nM
IC50 (GSC231 [4]): < 2000 nM
IC50 (GSC6-27 [5]): > 2000 nM
sensitivity in vitro (GSC7-2 [6]; GSC7-2 line): not sensitive
IC50 (GSC7-2 [6]; GSC7-2 line in vitro): > 2000 nM
IC50 (GSC272 [7]): > 2000 nM
apoptotic percentage (GSC11 [8]; GSC11, monotherapy at 2×IC50): 62%
apoptotic percentage (GSC11 [8]; GSC11, monotherapy at the IC50): 56%
apoptotic percentage (GSC17 [9]; GSC17, monotherapy at 2×IC50): 12%
apoptotic percentage (GSC17 [9]; GSC17, monotherapy at the IC50): 11%
apoptotic percentage (GSC7-2 [10]; GSC7-2, monotherapy at 2×IC50): 17%
apoptotic percentage (GSC7-2 [10]; GSC7-2, monotherapy at the IC50): 13%
pERK expression in orthotopic tumor (GSC11 [11]; GSC11, PD marker): significantly reduced pERK
median survival (GSC11 [11]; GSC11 orthotopic, vs vehicle): no significant effects on survival
pERK expression in orthotopic tumor (GSC17 [12]; GSC17, PD marker): significantly reduced pERK
median survival (GSC17 [12]; GSC17 orthotopic, vs vehicle): no significant effects on survival
tumor volume / tumor growth (GSC17 [12]; GSC17 orthotopic, vs vehicle): not affected
proliferation (Ki67 by immunohistochemistry) (GSC17 [12]; GSC17 tumor sections, compared to vehicle): significantly reduced proliferation
pERK expression in orthotopic tumor (GSC20 [13]; GSC20, PD marker): significant effects of pimasertib treatment on pERK protein were not seen
median survival (GSC20 [13]; GSC20 orthotopic, vs vehicle): no significant effects on survival
tumor volume / tumor growth (GSC20 [13]; GSC20 orthotopic, vs vehicle): had not responded
pERK expression in orthotopic tumor (GSC231 [14]; GSC231, PD marker): significantly reduced pERK
pS6 expression in orthotopic tumor (GSC231 [14]; GSC231, PD marker): significantly reduced pS6
cross-pathway reduction of pS6, trend over time (GSC231 [14]; GSC231, from 7.5-10 weeks): diminished
median survival (GSC231 [14]; GSC231 orthotopic, vs vehicle): no significant effects on survival
tumor volume / tumor growth (GSC231 [14]; GSC231 orthotopic, vs vehicle): trend towards a significant response
pERK expression in orthotopic tumor (GSC272 [15]; GSC272, PD marker): significantly reduced pERK
pS6 expression in orthotopic tumor (GSC272 [15]; GSC272, PD marker): significantly reduced pS6
cross-pathway reduction of pS6, trend over time (GSC272 [15]; GSC272, from 7.5-10 weeks): diminished
median survival (GSC272 [15]; GSC272 orthotopic, vs vehicle): no significant effects on survival
tumor volume / tumor growth (GSC272 [15]; GSC272 orthotopic, vs vehicle): significant tumor growth inhibition
pERK expression in orthotopic tumor (GSC6-27 [16]; GSC6-27, PD marker): significantly reduced pERK
median survival (GSC6-27 [16]; GSC6-27 orthotopic, vs vehicle): no significant effects on survival
tumor volume / tumor growth (GSC6-27 [16]; GSC6-27 orthotopic, vs vehicle): significant tumor growth inhibition
pERK expression in orthotopic tumor (GSC7-2 [17]; GSC7-2, PD marker): significantly reduced pERK
median survival (GSC7-2 [17]; GSC7-2 orthotopic, vs vehicle): no significant effects on survival
tumor volume / tumor growth (GSC7-2 [17]; GSC7-2 orthotopic, vs vehicle): significant tumor growth inhibition
number of apoptotic cells/field (GSC7-2 [17]; GSC7-2 xenografts, after 10 weeks): 65.00±60.80 cells/field
apoptosis in xenografts vs control (GSC7-2 [17]; GSC7-2 xenografts, at 7.5 weeks): Neither M2698, pimasertib, nor combination treatment significantly affected apoptosis
tumor control rate (TCR) [18]: 16%
tumor volume over the duration of the experiment [19]: stasis of the tumor volume
tumor stasis, number of tumor samples [20]: 1/12
tumor stasis, share of tumor samples [20]: 8%
tumor control rate (TCR) (Colorectal Cancer PDX): 32%
tumor control rate (TCR), models controlled/models (Colorectal Cancer PDX): 24/74
blood-brain barrier penetration [21]: brain-penetrant
